Measurements reported in patent US8586588B2, “Aryl pyridazinone derivatives and their use as H3 receptor ligands” (Cephalon, Inc., priority 2006, dated 2013).
pKi: −log10 of the molar value. Where “and” joins values, the source holds several entries; their conditions need not be identical. Equal entries are not always repeated.

Experiments:
human H3 receptor = molecular target: T1, human H3 receptor (Homo sapiens, UniProt Q9Y5N1); test: Human H3 radioligand binding ([3H]-N-alpha-methylhistamine, CHO cell membranes, SPA); conditions: Table B, binding constant as letter class
T1 construct: expressed in transfected cells
T1 sequence (Q9Y5N1 whole entry): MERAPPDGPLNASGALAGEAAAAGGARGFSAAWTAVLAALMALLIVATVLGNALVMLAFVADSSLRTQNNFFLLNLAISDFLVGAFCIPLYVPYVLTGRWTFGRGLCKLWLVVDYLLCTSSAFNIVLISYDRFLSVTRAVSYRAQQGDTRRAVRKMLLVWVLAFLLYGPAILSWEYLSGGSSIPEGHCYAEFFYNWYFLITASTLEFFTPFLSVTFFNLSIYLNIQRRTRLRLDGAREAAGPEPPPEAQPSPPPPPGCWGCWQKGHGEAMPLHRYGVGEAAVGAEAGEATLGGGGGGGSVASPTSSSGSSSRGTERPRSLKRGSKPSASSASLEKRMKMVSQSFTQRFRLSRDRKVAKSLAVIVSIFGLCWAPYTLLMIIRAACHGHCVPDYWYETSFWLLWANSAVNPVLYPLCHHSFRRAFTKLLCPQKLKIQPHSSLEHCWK
How it was run: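 Scintillation proximity format: bead-proximal [3H]-N-alpha-methylhistamine (approximately 1 nM final) bound to human H3 receptor in CHO membranes was counted after 4 h at room temperature, light-protected. Buffer was pH 7.4 Tris/MgCl2/BSA; test compounds spanned 0.01 nM-30 μM; 10 μM clobenpropit set non-specific binding.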

[1] = molecular target: T2, rat histamine H3 receptor (Rattus norvegicus, UniProt Q9QYN8); test: Rat H3 radioligand binding ([3H]-N-alpha-methylhistamine, CHO-A3 cell membranes, SPA); conditions: Table B, binding constant as letter class; read-out: rat H3 Ki
T2 construct: encoding the entire 445-amino-acid rat histamine H3 receptor; expressed in transfected cells
T2 sequence (Q9QYN8 whole entry): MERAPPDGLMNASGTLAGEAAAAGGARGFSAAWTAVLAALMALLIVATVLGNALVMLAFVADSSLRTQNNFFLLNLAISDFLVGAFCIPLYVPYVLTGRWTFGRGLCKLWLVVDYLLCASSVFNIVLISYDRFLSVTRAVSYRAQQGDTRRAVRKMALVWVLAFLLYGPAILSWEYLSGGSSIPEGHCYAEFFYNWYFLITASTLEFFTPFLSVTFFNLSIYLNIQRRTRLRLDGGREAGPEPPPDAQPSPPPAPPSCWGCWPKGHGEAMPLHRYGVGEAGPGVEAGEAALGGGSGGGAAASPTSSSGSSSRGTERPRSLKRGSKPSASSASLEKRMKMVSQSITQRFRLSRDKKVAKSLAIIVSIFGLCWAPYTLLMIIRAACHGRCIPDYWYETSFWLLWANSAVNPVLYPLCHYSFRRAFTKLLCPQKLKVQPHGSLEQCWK
How it was run: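 Scintillation proximity displacement of about 1 nM [3H]-N-alpha-methylhistamine, test compound 0.01 nM-30 μM, 4 h, room temperature, in the dark. Receptor source: rat H3 stably transfected into CHO-A3 cells, 10 μg membrane protein, Tris-HCl pH 7.4/MgCl2/BSA buffer. Nonspecific binding defined by 10 μM clobenpropit.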

Row | SMILES | pKi (human H3 receptor) | pKi [1]
1 | C[C@@H]1CCCN1CCCOc1ccc(-c2ccc(=O)[nH]n2)cc1F [Example 119, 6-{3-Fluoro-4-[3-((R)-2-methyl-pyrrolidin-1-yl)-propoxy]-phenyl}-2H-pyridazin-3-one] | 7.00 to 10.00 | 7.00 to 10.00
2 | CC1CC(c2ccc(OCCCN3CCC[C@H]3C)cc2)=NNC1=O (stereo partly drawn) [Example 121, 4-Methyl-6-{4-[3-((R)-2-methyl-pyrrolidin-1-yl)-propoxy]-phenyl}-4,5-dihydro-2H-pyridazin-3-one] | 7.00 to 10.00 | 7.00 to 10.00
3 | Cc1cc(-c2ccc(OCCCN3CCC[C@H]3C)cc2)n[nH]c1=O [Example 122, 4-Methyl-6-{4-[3-((R)-2-methyl-pyrrolidin-1-yl)-propoxy]-phenyl}-2H-pyridazin-3-one] | 7.00 to 10.00 | 7.00 to 10.00
4 | Cc1cc(-c2ccc(OCCCN3CCCCC3)cc2)n[nH]c1=O [Example 123, 4-Methyl-6-[4-(3-piperidin-1-yl-propoxy)-phenyl]-2H-pyridazin-3-one] | 7.00 to 10.00 | 7.00 to 10.00
5 | C[C@@H]1CCCN1CCCOc1cccc(-c2nn(C)c(=O)c3c2CCC3)c1 [Example 125, 2-Methyl-4-{3-[3-((R)-2-methyl-pyrrolidin-1-yl)-propoxy]-phenyl}-2,5,6,7-tetrahydro-cyclopenta[d]pyridazin-1-one] | 6.30 to 7.00 | 6.00 to 6.30
6 | Cn1nc(-c2cccc(OCCCN3CCCCC3)c2)c2c(c1=O)CCC2 [Example 126, 2-Methyl-4-[3-(3-piperidin-1-yl-propoxy)-phenyl]-2,5,6,7-tetrahydro-cyclopenta[d]pyridazin-1-one] | 6.30 to 7.00 | 6.00 to 6.30
7 | CC(C)n1ncc(-c2ccc(OCCCN3CCC[C@H]3C)cc2)cc1=O [Example 128, 2-Isopropyl-5-{4-[3-((R)-2-methyl-pyrrolidin-1-yl)-propoxy]-phenyl}-2H-pyridazin-3-one] | 7.00 to 10.00 | 7.00 to 10.00
8 | C[C@@H]1CCCN1CCCOc1ccc(-c2ccc(=O)n(-c3ncccn3)n2)cc1 [Example 138, 6-{4-[3-((R)-2-Methyl-pyrrolidin-1-yl)-propoxy]-phenyl}-2-pyrimidin-2-yl-2H-pyridazin-3-one] | 7.00 to 10.00 | 7.00 to 10.00
9 | O=c1ccc(-c2ccc(OC3CCN(C4CCCC4)CC3)nc2)n[nH]1 [Example 139, 6-[6-(1-Cyclopentyl-piperidin-4-yloxy)-pyridin-3-yl]-2H-pyridazin-3-one] | 7.00 to 10.00 | 7.00 to 10.00
10 | O=c1ccc(-c2ccc(OC3CCN(C4CCC4)CC3)nc2)nn1-c1ccccn1 [Example 149, 6-[6-(1-Cyclobutyl-piperidin-4-yloxy)-pyridin-3-yl]-2-pyridin-2-yl-2H-pyridazin-3-one] | 7.00 to 10.00 | 7.00 to 10.00
11 | O=c1ccc(-c2ccc(OC3CCN(C4CCC4)CC3)cc2)nn1-c1ccccn1 [Example 157] | 7.00 to 10.00 | 7.00 to 10.00
12 | O=C1CCC(c2ccc(O[C@@H]3CCN(C4CCCC4)C3)cc2)=NN1 [Example 162, 6-[4-((R)-1-Cyclopentyl-pyrrolidin-3-yloxy)-phenyl]-4,5-dihydro-2H-pyridazin-3-one] | 6.00 to 6.30 | < 6.00
13 | O=C1NN=C(c2ccc(OC3CCN(C4CCC4)CC3)cc2)C2CCC12 (stereo not drawn) [Example 172, 5-[4-(1-Cyclobutyl-piperidin-4-yloxy)-phenyl]-3,4-diaza-bicyclo[4.2.0]oct-4-en-2-one] | 7.00 to 10.00 | 7.00 to 10.00
14 | C[C@@H]1CCCN1CCCOc1ccc(C2=NNC(=O)CC2)cc1 [Example 178, 6-{4-[3-((R)-2-Methyl-pyrrolidin-1-yl)-propoxy]-phenyl}-4,5-dihydro-2H-pyridazin-3-one] | 7.00 to 10.00 | 7.00 to 10.00
15 | Cc1ccc(=O)n(-c2ccc(OCCCN3CCC[C@H]3C)cc2)n1 [Example 201, 6-Methyl-2-{4-[3-((R)-2-methyl-pyrrolidin-1-yl)-propoxy]-phenyl}-2H-pyridazin-3-one] | 7.00 to 10.00 | 6.30 to 7.00

The remaining lines, values ahead:

Row | pKi (human H3 receptor) | pKi [1] | SMILES
16 | 7.00 to 10.00 | 7.00 to 10.00 | C[C@@H]1CCCN1CCCOc1ccc(-c2ccc(=O)n(CCF)n2)cc1 [Example 118, 2-(2-Fluoro-ethyl)-6-{4-[3-((R)-2-methyl-pyrrolidin-1-yl)-propoxy]-phenyl}-2H-pyridazin-3-one]
17 | 7.00 to 10.00 | 6.30 to 7.00 | O=c1ccc(-c2ccc(OCCCN3CCCCC3)c(F)c2)n[nH]1 [Example 120, 6-[3-Fluoro-4-(3-piperidin-1-yl-propoxy)-phenyl]-2H-pyridazin-3-one]
18 | 7.00 to 10.00 | 7.00 to 10.00 | Cn1nc(-c2ccc(OCCCN3CCC[C@H]3CO)cc2)c2c(c1=O)CCCC2 [Example 124, 4-{4-[3-((S)-2-Hydroxymethyl-pyrrolidin-1-yl)-propoxy]-phenyl}-2-methyl-5,6,7,8-tetrahydro-2H-phthalazin-1-one]
19 | 6.00 to 6.30 | 6.00 to 6.30 | Cn1nc(-c2cccc(OCCCN3CCC[C@H]3CO)c2)c2c(c1=O)CCC2 [Example 127, 4-{3-[3-((S)-2-Hydroxymethyl-pyrrolidin-1-yl)-propoxy]-phenyl}-2-methyl-2,5,6,7-tetrahydro-cyclopenta[d]pyridazin-1-one]
20 | 7.00 to 10.00 | 6.00 to 6.30 and 7.00 to 10.00 | Cn1nc(-c2ccc(OC3CCN(C4CCCC4)CC3)nc2)ccc1=O [Example 143, 6-[6-(1-Cyclopentyl-piperidin-4-yloxy)-pyridin-3-yl]-2-methyl-2H-pyridazin-3-one]
21 | 7.00 to 10.00 | 7.00 to 10.00 | Cn1nc(-c2ccc(OC3CCN(C4CCC4)CC3)nc2)ccc1=O [Example 144, 6-[6-(1-Cyclobutyl-piperidin-4-yloxy)-pyridin-3-yl]-2-methyl-2H-pyridazin-3-one]
22 | 7.00 to 10.00 | 7.00 to 10.00 | CC1(C)CC(c2ccc(OC3CCN(C4CCC4)CC3)nc2)=NNC1=O [Example 148, 6-[6-(1-Cyclobutyl-piperidin-4-yloxy)-pyridin-3-yl]-4,4-dimethyl-4,5-dihydro-2H-pyridazin-3-one]
23 | 7.00 to 10.00 | 7.00 to 10.00 | O=C1CCC(c2ccc(OC3CCN(C4CCC4)CC3)cc2)=NN1c1ccccn1 [Example 158, 6-[4-(1-Cyclobutyl-piperidin-4-yloxy)phenyl]-2-pyridin-2-yl-4,5-dihydro-2H-pyridazin-3-one]
24 | < 6.00 | < 6.00 | O=c1ccc(-c2ccc(O[C@@H]3CCN(C4CCC4)C3)cc2)n[nH]1 [Example 161, 6-[4-((R)-1-Cyclobutyl-pyrrolidin-3-yloxy)-phenyl]-2H-pyridazin-3-one]
25 | 7.00 to 10.00 | 7.00 to 10.00 | C[C@@H]1CCCN1CCCOc1ccc(C2=NN(c3ccccn3)C(=O)CC2)cc1 [Example 183, 6-{4-[3-((R)-2-Methyl-pyrrolidin-1-yl)-propoxy]-phenyl}-2-pyridin-2-yl-4,5-dihydro-2H-pyridazin-3-one]
26 | 7.00 to 10.00 | 7.00 to 10.00 | CC1CC(=O)N(c2ccccn2)N=C1c1ccc(OC2CCN(C3CCC3)CC2)cc1 (stereo not drawn) [Example 193, 6-[4-(1-Cyclobutyl-piperidin-4-yloxy)-phenyl]-5-methyl-2-pyridin-2-yl-4,5-dihydro-2H-pyridazin-3-one]
27 | 7.00 to 10.00 | 7.00 to 10.00 | Cc1cc(OCCCN2CCC[C@H]2C)ccc1C1=NNC(=O)CC1 [Example 199, 6-{(R)-2-Methyl-4-[3-(2-methyl-pyrrolidin-1-yl)-propoxy]-phenyl}-4,5-dihydro-2H-pyridazin-3-one]
